From PMC11521309, “A novel 4-aminoquinoline chemotype with multistage antimalarial activity and lack of cross-resistance with PfCRT and PfMDR1 mutants” (PLOS Pathogens, 2024)

Tests used:
HepG2 cells = experiment: MTT cytotoxicity assay, 72 h; type: cell-based, Human
Experimental: (§1) Human hepatoma (HepG2) and fibroblast-like monkey kidney cells (COS-7) were cultured in Dulbecco’s Modified Eagle Medium supplemented with 10% heat-inactivated fetal bovine serum and gentamycin (40 mg/L) at 37°C in a 5% CO2 atmosphere. Cytotoxicity of test compounds was measured by metabolic reduction of mitochondrial enzymes using the MTT assay (3-[4,5-dimethyl-thiazol-2-yl]-2,5-diphenyltetrazolium chloride). Cells were seeded at 10^5 cells/well in 96-well plates and incubated for 72 hours in the presence of a 2-fold 12-point serial dilution of drugs along with drug-free controls. After adding 15 μL of MTT (5 mg/mL) to the wells, plates were centrifuged at 317g for 5 minutes and the pellet was resuspended in isopropanol. Absorbance was measured at 570 nm (CLARIOStar, Labtech BMG). Cell viability was determined by formazan production, and was expressed as a percentage of untreated control wells.

[1] = MTT cytotoxicity assay, 72 h; type: cell-based, Human; conditions: human, HepG2 cells; MTT, 72 h, N = 3
Experimental: as §1

COS-7 cells = experiment: MTT cytotoxicity assay, 72 h; type: cell-based, monkey
Experimental: as §1

[2] = MTT cytotoxicity assay, 72 h; type: cell-based, monkey; conditions: monkey, COS-7 cells; MTT, 72 h, N = 3
Experimental: as §1

[3] = test system: P. falciparum 3D7 ABS parasites; experiment: ABS parasite survival assay, 72 h, flow cytometry; type: cell-based; conditions: Plasmodium falciparum, 3D7, ABS parasites, N = 3; read-out: IC50 3D7
Experimental: (§2) P. falciparum ABS parasites were cultured at 3% hematocrit in human O^+ RBCs in RPMI-1640 media supplemented with 25 mM HEPES, 50 mg/L hypoxanthine, 2 mM L-glutamine, 0.21% sodium bicarbonate, 0.5% (w/v) AlbuMAXII (Invitrogen) and 10 μg/mL gentamycin. Culture flasks were kept in modular incubator chambers (Billups-Rothenberg) in a 5% O2, 5% CO2, and 90% N2 atmosphere at 37°C. Synchronized ring-stage parasites were obtained by two consecutive rounds of treatment with 5% D-sorbitol in 48-hour intervals. […] This was done by exposing cultures at 1% hematocrit and 0.3% parasitemia in 96-well plates in the presence of drugs in a two-fold 10 or 12-point serial dilution in duplicate along with drug-free controls. After a 72-hour incubation, parasite survival was assessed by flow cytometry on an iQue flow cytometer (Sartorius) using SYBR Green and MitoTracker Deep Red FM (Life Technologies) as nuclear stain and vital dye, respectively. Parasite survival was determined as a percentage relative to drug-free control. IC50 values were interpolated from log concentration versus response curves in Prism 9 (GraphPad Prism Software Inc.).

[4] = test system: P. falciparum Dd2 ABS parasites; experiment: ABS parasite survival assay, 72 h, flow cytometry; type: cell-based; conditions: Plasmodium falciparum, DD2, ABS parasites, N = 3; read-out: IC50 Dd2
Experimental: as §2

Huh-7 cells = experiment: Host cell confluency, Alamar Blue; type: cell-based, human; conditions: DMSO = 100
Experimental: (§3) In vitro inhibition of Plasmodium liver stage infection was assessed using bioluminescence data from Huh-7 cells infected with a firefly-luciferase-expressing P. berghei line, PbGFP-Luccon, in the presence of various compound concentrations. […] One day before drug treatment and infection, 10^4 Huh-7 cells/well were seeded in 96-well plates. The medium was then replaced by an infection medium (culture medium supplemented with 50 μg/mL gentamycin and 0.8 μg/mL amphotericin B) containing desired concentrations of test compounds. Fresh sporozoites recovered from salivary glands of infected female Anopheles stephensi mosquitoes were added to seeded Huh-7 cells at a 1:1 proportion, followed by centrifugation at 1700g for 5 minutes and incubation for 46 hours at 37°C under 5% CO2. Compound toxicity against Huh-7 cells was assessed by measuring […] using the Alamar Blue assay (Invitrogen). IC50 values were calculated using nonlinear regression analysis (GraphPad Prism version 9).

[5] = test system: P. berghei PbGFP-Luccon liver stage; experiment: In vitro inhibition of liver stage infection of Huh-7 cells, bioluminescence; type: cell-based, Plasmodium berghei; conditions: DMSO = 100
Experimental: as §3

[6] = test system: P. falciparum NF54-Pfs16-GFP-Luc stage IV-V gametocytes; experiment: Mature gametocyte (stages IV-V) viability, luciferase, 48 h; type: cell-based, Plasmodium falciparum; conditions: 5 μM
Experimental: P. falciparum NF54-Pfs16-GFP-Luc (MRA-1217), a highly gametocyte-producing strain, was cultured following standard procedures. NF54-Luc ABS parasites were sorbitol-synchronized as previously described and cultured to reach 8–10% parasitemia as mature trophozoites prior to starting gametogenesis induction via nutrient deficit stress. Briefly, stress was induced by replacing only 40% of the culture medium and returning cultures to a 37°C incubation. Cultures were treated with 50 mM N-acetylglucosamine for 10 days to remove ABS parasites. Mature gametocytes (stages IV-V) were isolated using magnetic columns and incubated at 2% gametocytemia and 1.5% hematocrit in 96-well plates containing the test compounds for 48 hours at 37°C, following standard P. falciparum culturing conditions. Methylene blue was used as a gametocytocidal control alongside drug-free wells. Luciferase activity was assessed by adding 40 μL of luciferin substrate (Promega) to 40 μL of parasite lysates and detecting bioluminescence at an integration constant of 10s with the BioTek Cytation 5 Cell Imaging Multimode Reader.

## COc1ccc2c(Nc3ccccc3)ccnc2c1 [LDT-622]
HepG2 cells
  SI (CC50 HepG2 / IC50 3D7): 13.7
[1]
  CC50 at 72 h: 3 ± 0.9 µM
COS-7 cells
  SI (CC50 COS-7 / IC50 3D7): 17.5
[2]
  CC50 at 72 h: 3.8 ± 0.7 µM
[3]
  IC50: 0.2 ± 0.02 µM
[4]
  IC50: 0.4 ± 0.06 µM

## COc1ccc(Nc2ccnc3c(F)cc(F)cc23)cc1OC [LDT-626]
HepG2 cells
  SI (CC50 HepG2 / IC50 3D7): 9.8
[1]
  CC50 at 72 h: 53.8 ± 10.8 µM
COS-7 cells
  SI (CC50 COS-7 / IC50 3D7): 9.3
[2]
  CC50 at 72 h: 50.9 ± 22.2 µM
[3]
  IC50: 5.5 ± 0.5 µM
[4]
  IC50: 3.2 ± 0.4 µM

## COc1cccc(Nc2ccnc3ccccc23)c1 [LDT-617]
HepG2 cells
  SI (CC50 HepG2 / IC50 3D7): 23.1
[1]
  CC50 at 72 h: 40.8 ± 12.2 µM
COS-7 cells
  SI (CC50 COS-7 / IC50 3D7): 28.9
[2]
  CC50 at 72 h: 51.2 ± 6.6 µM
[3]
  IC50: 1.8 ± 0.1 µM
[4]
  IC50: 1.9 ± 0.2 µM

## COc1ccc(Nc2ccnc3ccccc23)cc1 [LDT-627]
HepG2 cells
  SI (CC50 HepG2 / IC50 3D7): 5.2
[1]
  CC50 at 72 h: 12.7 ± 6.4 µM
COS-7 cells
  SI (CC50 COS-7 / IC50 3D7): 22.1
[2]
  CC50 at 72 h: 54.5 ± 16.7 µM
[3]
  IC50: 2.5 ± 0.8 µM
[4]
  IC50: 2 ± 0.2 µM

## COc1cc(NC(C)CCCN)c2ncccc2c1 (stereo not shown) [Primaquine]
Huh-7 cells; 1 uM
  Confluency, Mean: 110.92
Huh-7 cells; 10 uM
  Confluency, Mean: 113.36
[5]; 1 uM
  Infection, Mean: 136.53
[5]; 10 uM
  Infection, Mean: 51.51

## CN(C)c1ccc2nc3ccc(=[N+](C)C)cc-3sc2c1 [methylene blue]
[6]; mean, N = 3
  % Inhibition of viability, mature gametocytes: 100%
[6]; mean, N = 3, listed as MB
  % Inhibition of viability, mature gametocytes: 100.00%
[6]; single replicates
  % Inhibition of viability, mature gametocytes: 100.00%
